Test results reported in patent publication US20100183745A1, “Electrochemical Device for Biocide Treatment in Agricultural Applications” (Industrie De Nora S.P.A., priority 2007, published 2010).

System: Erwinia amylovora
Assay: SEM analysis of bacterial colonies on treated pear leaves
Assay type: in vivo, pear trees of white William variety
Conditions: leaves apparently not affected by the disease; copious bacterial colonies prior to treatment; once a day during 10 days
Text: The feed vessel was loaded with a solution at neutral pH containing 1 g/l of NaCl and 2.5 g/l of KCl, and the service vessel was loaded with a tap-water stream whose flow-rate was controlled by a downstream UV probe, calibrated so as to detect the concentration of outlet hypochlorous acid by adsorption at 292 nm adjusting the same at a value comprised between 0.10 and 0.15 g/l at sprinkling stage. The outflow of electrolysis cell to the service vessel was adjusted at a flow-rate of 20 l/h.
The device regulated in this way was used for sprinkling the leaves of 50 pear trees of white William variety affected with fire blight, a disease induced by Erwinia amylovora bacterium causing stems, leaves and flowers of the plant to turn brown in localised groups. […] Each treatment was repeated once a day, during 10 subsequent days.

O.O.O.O.O.O=S(=O)([O-])[O-].[Cu+2] [cupric sulphate] was tested, and the “bacterial colonies on leaves by SEM analysis after the treatment” value was “substantial reduction of the phenomenon, still showed the signs of traces of bacterial colonies”.
